Data taken from ChEMBL document CHEMBL1201862, “PubChem BioAssay data set” (2004).
The source made the active and inactive calls.

Assays:
HEK293 [1] = experiment: NOD1 signaling inhibitors, primary screen, cell-based, luminescence, uHTS (AID 1578); format: functional; conditions: Homo sapiens
HEK293 [2] = experiment: cells; format: functional, cell-based; conditions: Homo sapiens
HEK293 [3] = experiment: cells; format: functional, cell-based; conditions: Homo sapiens; remark: listed apart in the source
[4] = inhibitors of intracellular T. cruzi replication, confirmation, NIH3T3 host cells, beta-gal luminescence (AID 2044); format: functional, cell-based;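 note: intracellular parasites grown in NIH/3T3 mouse fibroblasts as host cells; luminescent beta-galactosidase reporter signal from transgenic T. cruzi replicating inside host cells; inhibitors lower the luminescence signal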
[5] = cytotoxicity toward NIH3T3 fibroblasts, dose response, counter-screen, cell-based, ATP luminescence, mouse fibroblasts (AID 2010); format: functional;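 note: cells exposed to compound for about 90 hours before reading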
[6] = molecular target: T1, Heat shock factor protein 1 (Mus musculus, UniProt P38532); experiment: HSF1 potentiators in luciferase reporter cells, confirmation, cell-based, NIH3T3, luminescence, dose retest (AID 435004); format: functional;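 note: stress induced by proteasome inhibitor MG132 added 30 min after compound; luciferase reporter driven by HSF1 response element in NIH3T3 cells; actives raise luminescence as potentiators of the MG132 stress response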
T1 sequence (P38532 whole entry): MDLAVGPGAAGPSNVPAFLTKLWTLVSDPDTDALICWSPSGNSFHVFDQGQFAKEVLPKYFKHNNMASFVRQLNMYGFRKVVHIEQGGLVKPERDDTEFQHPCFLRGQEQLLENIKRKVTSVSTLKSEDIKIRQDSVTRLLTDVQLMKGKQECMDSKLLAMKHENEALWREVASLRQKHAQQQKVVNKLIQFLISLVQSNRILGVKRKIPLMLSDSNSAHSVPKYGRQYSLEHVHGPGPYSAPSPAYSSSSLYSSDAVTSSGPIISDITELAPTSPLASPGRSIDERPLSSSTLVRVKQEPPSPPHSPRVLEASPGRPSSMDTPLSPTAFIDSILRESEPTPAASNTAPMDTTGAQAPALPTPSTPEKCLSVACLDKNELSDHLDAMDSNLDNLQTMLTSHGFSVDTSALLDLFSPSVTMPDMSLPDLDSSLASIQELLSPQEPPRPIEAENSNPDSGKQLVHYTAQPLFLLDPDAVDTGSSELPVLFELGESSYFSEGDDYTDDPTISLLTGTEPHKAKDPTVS

[7] = molecular target: T2, Short transient receptor potential channel 4 (Mus musculus, UniProt Q9QUQ5); experiment: mouse TRPC4 channel activators, dose response, cell-based, HEK293 TRPC4/mu-opioid, Fluo-4 calcium (AID 434937); format: functional
T2 sequence (Q9QUQ5 whole entry): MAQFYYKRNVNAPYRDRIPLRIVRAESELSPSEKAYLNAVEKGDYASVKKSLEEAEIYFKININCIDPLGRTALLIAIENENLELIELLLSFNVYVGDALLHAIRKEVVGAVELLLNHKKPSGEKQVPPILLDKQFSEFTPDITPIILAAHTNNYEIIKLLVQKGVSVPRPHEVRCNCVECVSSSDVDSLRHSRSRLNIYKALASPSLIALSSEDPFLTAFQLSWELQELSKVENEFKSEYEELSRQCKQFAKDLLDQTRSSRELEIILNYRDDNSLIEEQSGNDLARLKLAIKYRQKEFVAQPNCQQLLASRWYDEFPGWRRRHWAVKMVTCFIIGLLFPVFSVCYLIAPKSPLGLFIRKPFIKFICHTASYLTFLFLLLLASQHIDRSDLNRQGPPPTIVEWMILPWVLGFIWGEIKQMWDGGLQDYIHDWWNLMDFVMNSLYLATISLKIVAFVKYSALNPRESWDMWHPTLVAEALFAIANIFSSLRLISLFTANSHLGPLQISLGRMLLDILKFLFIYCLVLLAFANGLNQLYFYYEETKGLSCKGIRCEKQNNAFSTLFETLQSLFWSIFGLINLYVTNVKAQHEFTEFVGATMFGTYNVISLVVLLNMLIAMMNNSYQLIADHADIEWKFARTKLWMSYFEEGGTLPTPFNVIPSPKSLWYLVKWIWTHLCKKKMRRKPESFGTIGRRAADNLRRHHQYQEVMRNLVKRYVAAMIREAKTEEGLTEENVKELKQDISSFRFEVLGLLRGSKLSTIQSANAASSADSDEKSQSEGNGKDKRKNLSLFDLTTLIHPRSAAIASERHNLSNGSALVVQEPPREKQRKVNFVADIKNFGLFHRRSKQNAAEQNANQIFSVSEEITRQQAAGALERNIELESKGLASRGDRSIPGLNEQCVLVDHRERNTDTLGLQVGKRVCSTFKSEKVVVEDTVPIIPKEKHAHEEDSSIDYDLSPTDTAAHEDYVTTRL

[8] = molecular target: Delta-type opioid receptor (Homo sapiens, UniProt P41143); experiment: Counterscreen for agonists of heterodimerization of the mu 1 (OPRM1) and delta 1 (OPRD1) opioid receptors: Luminescence-based cell-based high throughput dose response assay to identify agonists of OPRD1 homodimerization. [Related pubchem assays (depositor defined):AID504326, AID504355, AID504692, AID504904, AID504905]; format: functional
Mu-type opioid receptor = Mu-type opioid receptor (Homo sapiens, UniProt P35372); experiment: Counterscreen for agonists of heterodimerization of the mu 1 (OPRM1) and delta 1 (OPRD1) opioid receptors: Luminescence-based cell-based high throughput dose response assay to identify agonists of OPRM1 homodimerization.; format: functional;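 note: U2OS cells expressing OPRM1 and beta-arrestin as split beta-galactosidase partners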
[9] = molecular target: 5-hydroxytryptamine receptor 5A (Homo sapiens, UniProt P47898); experiment: Counterscreen for agonists of OPRM1-OPRD1 heterodimerization: luminescence-based cell-based high throughput dose response assay to identify agonists of 5-hydroxytryptamine (serotonin) 5A receptor (HTR5A). [Related pubchem assays (depositor defined):AID504326, AID504355, AID504692, AID504904, AID504905]; format: functional
[10] = inhibitors of firefly luciferase expression or activity, dose response, H4 neuroglioma cells, luminescence (AID 1990); format: functional, cell-based
[11] = molecular target: E3 ubiquitin-protein ligase Mdm2 (Homo sapiens, UniProt Q00987); experiment: enhancers of MDM2-luciferase reporter signal, concentration-effect titration, project on inhibitors of MDM2 ubiquitin ligase, cellular assay, luminescent readout, 384-well plate format (AID 1394); format: functional;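 note: MDM2 E3 inhibitors raise luminescence so EC50 is for signal enhancement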
[12] = Luminescence Cell-Based Dose Response HTS to Identify Inhibitors of 5'UTR Stem-Loop Driven Prion Protein mRNA Translation in H4 Neuroglioblastoma Cells. [Related pubchem assays: 1827 (Project Summary), 1813 (Primary HTS)]; format: functional
Beta-galactosidase = Beta-galactosidase (Escherichia coli, UniProt Q8VNN2); experiment: PubChem AID 485352; format: functional
[13] = molecular target: G-protein coupled receptor 55 (Homo sapiens, UniProt Q9Y2T6); experiment: GPR55 antagonists blocking LPI-driven arrestin recruitment, primary screen, imaging, U2OS, beta-arrestin-GFP, LPI agonist (AID 2013); format: functional;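 note: antagonist potency measured as reduced agonist-driven arrestin aggregation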
[14] = molecular target: T3, Type-1 angiotensin II receptor (Homo sapiens, UniProt P30556); experiment: AT1 receptor antagonists, dose response, selectivity assay for APJ receptor antagonist project, cell-based, uHTS hits (AID 463214); format: functional;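 note: antagonist potency against angiotensin II stimulated AT1 response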
T3 sequence (P30556 whole entry): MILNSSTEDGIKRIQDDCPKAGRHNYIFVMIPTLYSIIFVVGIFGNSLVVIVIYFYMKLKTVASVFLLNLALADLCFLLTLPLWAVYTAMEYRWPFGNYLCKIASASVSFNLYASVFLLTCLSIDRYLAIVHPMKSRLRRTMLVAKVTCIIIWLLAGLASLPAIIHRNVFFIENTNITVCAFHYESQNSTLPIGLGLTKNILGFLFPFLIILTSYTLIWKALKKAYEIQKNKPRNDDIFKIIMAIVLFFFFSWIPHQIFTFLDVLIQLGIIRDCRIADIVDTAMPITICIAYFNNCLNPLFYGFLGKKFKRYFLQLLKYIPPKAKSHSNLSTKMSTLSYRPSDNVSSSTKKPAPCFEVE

Jurkat = experiment: antigen receptor-induced NF-kB inhibitors, dose response, Jurkat, luciferase reporter, luminescence, B- and T-cell (AID 489004); format: functional, cell-based; conditions: Homo sapiens;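 note: NF-kB luciferase reporter Jurkat cells stimulated with PMA plus ionomycin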
[15] = cytotoxicity in HEK-293T NF-kB-Luc cells, dose response, cytotoxicity control for B/T-cell NF-kB inhibitor project, cell-based, uHTS hits (AID 489019); format: functional;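 note: IC50 reflects cytotoxicity as loss of cell viability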
INS1 = experiment: beta cell apoptosis inhibitors, cytokine rescue, dose response, luminescence, retest (AID 449756); format: functional, cell-based; conditions: Rattus norvegicus;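 note: cell death triggered by IL-1 beta plus TNF-alpha plus IFN-gamma mixture; protective hits raise ATP signal compared with cytokine alone wells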
[16] = Shn3 3'UTR reporter inhibitors, dose response, cell-based, Clone20 osteoblasts, firefly luciferase, cherry-picked (AID 624132); format: functional;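 note: firefly luciferase luminescence from reporter carrying the Shn3 3'UTR in osteoblasts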
[17] = HepG2 cell cytotoxicity, dose response, cytotoxicity control for Shn3 inhibitor project, CellTiter-Glo, cherry-picked (AID 624134); format: functional, cell-based
[18] = control 3'UTR Renilla luciferase suppression, dose response, counter-screen for Shn3 inhibitor project, cell-based, Clone20-Shn3RL, cherry-picked (AID 624133); format: functional
[19] = molecular target: Photoreceptor-specific nuclear receptor (Homo sapiens, UniProt Q9Y5X4); format: functional, cell-based;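 note: CHO-S cells with Gal4-NCOR and VP16-NR2E3 two-hybrid luciferase reporter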
Chain of Photoreceptor-specific nuclear receptor (Q9Y5X4 whole entry, the tested form may be a part): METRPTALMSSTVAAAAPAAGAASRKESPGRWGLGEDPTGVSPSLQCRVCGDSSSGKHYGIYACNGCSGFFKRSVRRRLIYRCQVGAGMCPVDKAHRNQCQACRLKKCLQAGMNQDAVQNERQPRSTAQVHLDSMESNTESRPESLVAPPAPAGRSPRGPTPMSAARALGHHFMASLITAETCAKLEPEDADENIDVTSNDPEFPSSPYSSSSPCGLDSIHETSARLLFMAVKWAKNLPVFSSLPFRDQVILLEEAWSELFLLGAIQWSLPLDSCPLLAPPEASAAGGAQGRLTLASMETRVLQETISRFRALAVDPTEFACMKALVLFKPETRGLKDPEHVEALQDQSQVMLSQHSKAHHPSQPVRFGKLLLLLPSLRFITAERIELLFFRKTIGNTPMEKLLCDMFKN

Chain of Mu-type opioid receptor (P35372 whole entry): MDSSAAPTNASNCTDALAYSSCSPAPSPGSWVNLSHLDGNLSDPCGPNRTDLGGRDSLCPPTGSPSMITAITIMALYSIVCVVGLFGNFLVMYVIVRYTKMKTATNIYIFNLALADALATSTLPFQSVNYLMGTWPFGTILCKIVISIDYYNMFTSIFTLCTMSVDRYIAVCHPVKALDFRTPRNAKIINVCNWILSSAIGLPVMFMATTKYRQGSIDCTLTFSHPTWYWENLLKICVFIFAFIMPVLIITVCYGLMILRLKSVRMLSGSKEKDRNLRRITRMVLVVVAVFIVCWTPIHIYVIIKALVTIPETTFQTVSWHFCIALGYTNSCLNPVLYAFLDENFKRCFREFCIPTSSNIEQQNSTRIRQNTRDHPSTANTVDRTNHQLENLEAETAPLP
Chain of 5-hydroxytryptamine receptor 5A (P47898 whole entry): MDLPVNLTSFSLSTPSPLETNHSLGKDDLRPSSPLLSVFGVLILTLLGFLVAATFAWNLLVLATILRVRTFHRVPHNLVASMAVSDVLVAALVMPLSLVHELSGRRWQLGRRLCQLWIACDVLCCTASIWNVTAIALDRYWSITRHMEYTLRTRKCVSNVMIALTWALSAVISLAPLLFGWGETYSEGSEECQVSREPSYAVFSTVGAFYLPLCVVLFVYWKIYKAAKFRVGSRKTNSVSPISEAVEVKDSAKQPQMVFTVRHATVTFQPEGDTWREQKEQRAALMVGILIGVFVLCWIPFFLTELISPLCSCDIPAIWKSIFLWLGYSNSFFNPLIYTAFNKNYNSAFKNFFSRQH
Chain of Delta-type opioid receptor (P41143 whole entry): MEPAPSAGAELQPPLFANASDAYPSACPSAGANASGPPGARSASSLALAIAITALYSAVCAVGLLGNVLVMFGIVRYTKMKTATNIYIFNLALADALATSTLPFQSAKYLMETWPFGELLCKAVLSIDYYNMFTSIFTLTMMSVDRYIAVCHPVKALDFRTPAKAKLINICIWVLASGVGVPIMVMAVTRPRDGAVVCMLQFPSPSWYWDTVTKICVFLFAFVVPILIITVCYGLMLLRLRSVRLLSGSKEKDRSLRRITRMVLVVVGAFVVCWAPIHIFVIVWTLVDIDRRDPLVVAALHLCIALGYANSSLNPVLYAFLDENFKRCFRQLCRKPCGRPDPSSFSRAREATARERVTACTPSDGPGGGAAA
Chain of G-protein coupled receptor 55 (Q9Y2T6 whole entry): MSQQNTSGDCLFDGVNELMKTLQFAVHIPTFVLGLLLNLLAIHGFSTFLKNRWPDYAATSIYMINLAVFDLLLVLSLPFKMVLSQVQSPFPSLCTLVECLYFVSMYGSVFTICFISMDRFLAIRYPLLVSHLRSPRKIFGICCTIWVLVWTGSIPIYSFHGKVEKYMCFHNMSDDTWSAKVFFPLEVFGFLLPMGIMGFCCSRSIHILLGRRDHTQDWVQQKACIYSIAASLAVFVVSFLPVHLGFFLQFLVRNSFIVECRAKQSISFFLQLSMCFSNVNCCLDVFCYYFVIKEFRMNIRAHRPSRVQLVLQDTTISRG
Chain of Beta-galactosidase (Q8VNN2 whole entry): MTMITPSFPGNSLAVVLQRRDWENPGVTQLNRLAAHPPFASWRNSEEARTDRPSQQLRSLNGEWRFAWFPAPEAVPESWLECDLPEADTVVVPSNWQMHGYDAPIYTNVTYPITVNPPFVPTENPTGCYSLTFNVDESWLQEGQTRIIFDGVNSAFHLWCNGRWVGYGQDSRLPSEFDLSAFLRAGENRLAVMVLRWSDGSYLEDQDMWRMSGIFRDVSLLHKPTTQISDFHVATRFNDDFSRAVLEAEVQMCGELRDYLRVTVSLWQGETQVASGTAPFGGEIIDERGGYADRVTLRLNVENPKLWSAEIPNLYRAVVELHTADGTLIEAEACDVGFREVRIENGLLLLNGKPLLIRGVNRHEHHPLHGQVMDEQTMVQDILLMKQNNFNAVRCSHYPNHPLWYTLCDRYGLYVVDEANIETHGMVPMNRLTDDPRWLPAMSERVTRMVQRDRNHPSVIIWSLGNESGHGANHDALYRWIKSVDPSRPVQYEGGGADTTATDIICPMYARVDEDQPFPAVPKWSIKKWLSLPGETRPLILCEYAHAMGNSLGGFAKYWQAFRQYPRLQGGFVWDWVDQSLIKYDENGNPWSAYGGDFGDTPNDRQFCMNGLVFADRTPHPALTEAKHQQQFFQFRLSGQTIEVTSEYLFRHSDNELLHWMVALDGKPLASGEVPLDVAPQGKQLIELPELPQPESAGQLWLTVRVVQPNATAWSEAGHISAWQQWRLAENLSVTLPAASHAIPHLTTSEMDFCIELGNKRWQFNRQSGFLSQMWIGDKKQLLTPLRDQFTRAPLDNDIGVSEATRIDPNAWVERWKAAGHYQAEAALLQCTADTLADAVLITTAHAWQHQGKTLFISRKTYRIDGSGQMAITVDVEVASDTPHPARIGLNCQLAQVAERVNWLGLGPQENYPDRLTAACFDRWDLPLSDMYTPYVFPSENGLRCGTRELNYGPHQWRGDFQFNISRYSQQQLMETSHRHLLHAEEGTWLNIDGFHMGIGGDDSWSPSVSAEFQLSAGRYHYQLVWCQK
Chain of E3 ubiquitin-protein ligase Mdm2 (Q00987 whole entry): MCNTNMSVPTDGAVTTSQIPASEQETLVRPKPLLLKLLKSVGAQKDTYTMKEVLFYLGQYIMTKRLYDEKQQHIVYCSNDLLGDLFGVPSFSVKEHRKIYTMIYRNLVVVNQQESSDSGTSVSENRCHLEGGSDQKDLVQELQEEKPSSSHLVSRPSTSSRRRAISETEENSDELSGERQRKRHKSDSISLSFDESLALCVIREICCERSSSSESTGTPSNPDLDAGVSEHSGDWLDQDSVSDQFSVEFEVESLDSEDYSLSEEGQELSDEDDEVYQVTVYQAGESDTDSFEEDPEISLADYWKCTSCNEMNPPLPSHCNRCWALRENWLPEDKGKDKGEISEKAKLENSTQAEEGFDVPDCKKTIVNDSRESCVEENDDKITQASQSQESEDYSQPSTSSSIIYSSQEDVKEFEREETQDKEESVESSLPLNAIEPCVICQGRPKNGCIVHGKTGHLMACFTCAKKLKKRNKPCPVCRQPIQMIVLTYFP

In the case of `Cc1cc(C(=O)N/N=C/c2ccc([N+](=O)[O-])s2)c2ccccc2n1`, the EC50 (HEK293 [1]) is reported as 7.6 µM (active), the IC50 (HEK293 [2]) is reported as 15.8 µM (active) and the IC50 (HEK293 [3]) is reported as > 20 µM (inactive). For the same compound, the EC50 [4] was 0.623 µM (active), the EC50 [5] was > 30 µM (not active) and the EC50 [6] was 13 µM (active).

In the case of `Cc1cccc(NC(S)=NCC(c2cccnc2)N(C)C)c1C` (stereo unspecified), the EC50 [7] is reported as 0.0067 µM (active), the EC50 [8] is reported as 17.8 µM (inactive) and the EC50 (Mu-type opioid receptor) is reported as 2.75 µM (active). For the same compound, the EC50 [9] was > 92.5 µM (inactive).

With `COC(=O)C(Cc1cccc(C)n1)(c1ccccc1)c1ccccc1` the EC50 [8] was > 92.5 µM (inactive), the EC50 (Mu-type opioid receptor) was > 92.5 µM (inactive) and the EC50 [9] was > 92.5 µM (inactive).

In the case of `C=C1C(=O)O[C@@H]2C[C@@H](C)[C@@H]3C=CC(=O)[C@@]3(C)[C@@H](O)[C@H]12` [HELENALIN], the EC50 [10] is reported as 4.62 µM (inconclusive), the EC50 [11] is reported as 0.42 µM (active) and the EC50 [12] is reported as 8.32 µM (active). For the same compound, the EC50 (Beta-galactosidase) was > 40 µM (inactive), the IC50 [13] was 2.64 µM (active) and the IC50 [14] was 18.6 µM (active). For the same compound, the IC50 (Jurkat) was 1.02 µM (active), the IC50 [15] was > 80 µM (inactive) and the AC50 (INS1) was 2.27 µM (active). For the same compound, the AC50 [16] was 0.825 µM (active), the AC50 [17] was 4.35 µM (active) and the AC50 [18] was 1.53 µM (active). The IC50 [19] was 1.92 µM (active).
